Measured values published in patent US7595334B2, “Broadspectrum 2-(substituted-amino)-benzoxazole sulfonamide HIV protease inhibitors” (Tibotec Pharmaceuticals Ltd., priority 2001, dated 2009).

Tests used:
mock-infected MT4 cells = test: in vitro
Procedure: (§1) HIV- or mock-infected MT4 cells were incubated for five days in the presence of various concentrations of the inhibitor. […] Cell viability is measured by measuring the concentration of MTT, a yellow, water soluble tetrazolium dye that is converted to a purple, water insoluble formazan in the mitochondria of living cells only. Upon solubilization of the resulting formazan crystals with isopropanol, the absorbance of the solution is monitored at 540 nm. The values correlate directly to the number of living cells remaining in the culture at the completion of the five day incubation. The inhibitory activity of the compound was monitored on the virus-infected cells and was expressed as EC50 and EC90. These values represent the amount of the compound required to protect 50% and 90%, respectively, of the cells from the cytopathogenic effect of the virus. The toxicity of the compound was measured on the mock-infected cells and was expressed as CC50, which represents the concentration of compound required to inhibit the growth of the cells by 50%. The selectivity index (SI) (ratio CC50/EC50) is an indication of the selectivity of the anti-HIV activity of the inhibitor. Wherever results are reported as e.g. pEC50 or pCC50 values, the result is expressed as the negative logarithm of the result expressed as EC50 or CC50 respectively.
(§2) As a measure of the broad spectrum activity of the present compounds, the fold resistance (FR), defined as FR=EC50(mutant strain)/EC50(HIV-1 strain LAI), was determined.

[1] = tested on: HIV strain A (clinically isolated, protease mutations); type: cell-based; conditions: FR=EC50(mutant strain A)/EC50(HIV-1 strain LAI)
Procedure: as §1, §2

[2] = tested on: HIV strain B (clinically isolated, protease mutations); type: cell-based; conditions: FR=EC50(mutant strain B)/EC50(HIV-1 strain LAI)
Procedure: as §1, §2

[3] = tested on: HIV strain C (clinically isolated, protease mutations); type: cell-based; conditions: FR=EC50(mutant strain C)/EC50(HIV-1 strain LAI)
Procedure: as §1, §2

[4] = tested on: HIV strain D (clinically isolated, protease mutations); type: cell-based; conditions: FR=EC50(mutant strain D)/EC50(HIV-1 strain LAI)
Procedure: as §1, §2

[5] = tested on: HIV strain E (clinically isolated, protease mutations); type: cell-based; conditions: FR=EC50(mutant strain E)/EC50(HIV-1 strain LAI)
Procedure: as §1, §2

[6] = tested on: HIV strain F (clinically isolated, protease mutations); type: cell-based; conditions: FR=EC50(mutant strain F)/EC50(HIV-1 strain LAI)
Procedure: as §1, §2

HIV-1 LAI = test: Protein binding analyses: anti-HIV activity in presence of serum proteins; type: cell-based; conditions: MT4 cells
Procedure: Human serum proteins like albumin (HSA) or α-1 acid glycoprotein (AAG) are known to bind many drugs, resulting in a possible decrease in the effectiveness of those compounds. In order to determine whether the present compounds would be adversely affected by this binding, the anti-HIV activity of the compounds was measured in the presence of human serum, thus evaluating the effect of the binding of the protease inhibitors to those proteins.
MT4 cells are infected with HIV-1 LAI at a multiplicity of infection (MOI) of 0.001-0.01 CCID50 (50% cell culture infective dose per cell, CCID50). After 1 h incubation, cells are washed and plated into a 96 well plate containing serial dilutions of the compound in the presence of 10% FCS (foetal calf serum), 10% FCS+1 mg/ml AAG (α1-acid glycoprotein), 10% FCS+45 mg/ml HSA (human serum albumin) or 50% human serum (HS). After 5 or 6 days incubation, the EC50 (50% effective concentration in cell-based assays) is calculated by determining the cell viability or by quantifying the level of HIV replication. Cell viability is measured using the assay described above. Into a 96 well plate containing serial dilutions of the compound in the presence of 10% FCS or 10% FCS+1 mg/ml AAG, HIV (wild type or resistant strain) and MT4 cells are added to a final concentration of 200-250 CCID50/well and 30,000 cells/well, respectively. After 5 days of incubation (37° C., 5% CO2), the viability of the cells is determined by the tetrazolium colorimetric MTT (3-[4,5-Dimethylthiazol-2-yl]-2,5-diphenyltetrazolium bromide) method (Pauwels et al. J Virol. Methods 1988, 20, 309-321).

[7] = in vivo, ip, 20 mg/kg
Procedure: The compounds are formulated as a 20 mg/ml solution or suspension in DMSO, PEG400 or cyclodextin 40% in water. For most experiments in the rat (male and female rats), three dosing groups are formed: 1/single intraperitoneal (IP) dose at 20 mg/kg using the DMSO formulation; 2/single oral dose at 20 mg/kg using the PEG400 formulation and 3/single oral dose at 20 mg/kg using the cyclodextrin formulation. Blood is sampled at regular time intervals after dosing and drug concentrations in the serum are determined using a LC-MS bioanalytical method. Serum concentrations are expressed in […] after normalization to 10 mg/kg. Serum concentration at 30 minutes (30′) and at 3 hours (180′) can be determined as these values reflect the extent of absorption (30′) and the speed of elimination (180′). The rat serum concentration at 30 min and 180 min following IP administration of 20 mg/kg of compound 4 are 1098 ng/ml and 553 ng/ml respectively.

in vitro = conditions: human
Procedure: as §1, §2

SMILES | Tox (pCC50) (mock-infected MT4 cells) | A (FR) fold resistance [1] | B (FR) fold resistance [2] | C (FR) fold resistance [3] | D (FR) fold resistance [4] | E (FR) fold resistance [5] | F (FR) fold resistance [6] | Ratio of the EC50 compared to FCS (10%) (HIV-1 LAI; AAG 1 mg/ml (10% FCS+AAG)) | Ratio of the EC50 compared to FCS (10%) (HIV-1 LAI; FCS (10%)) | Ratio of the EC50 compared to FCS (10%) (HIV-1 LAI; HS 50% (human serum)) | Ratio of the EC50 compared to FCS (10%) (HIV-1 LAI; HSA 45 mg/ml (10% FCS+HSA)) | rat serum concentration at 30 min [7] [ng/mL] | rat serum concentration at 180 min [7] [ng/mL] | CC50 at 5 days (in vitro) [µM]
CC(=O)Nc1nc2ccc(S(=O)(=O)N(CC(C)C)C[C@@H](O)[C@H](Cc3ccccc3)NC(=O)O[C@H]3CO[C@H]4OCC[C@H]43)cc2o1 [Compound 1] | <4 | 0.63 | 0.80 | 0.50 | 0.72 | 0.40 | 0.71 | 25 | 1 | 15 | 6 | – | – | –
CC(C)CN(C[C@@H](O)[C@H](Cc1ccccc1)NC(=O)O[C@H]1CO[C@H]2OCC[C@H]21)S(=O)(=O)c1ccc2nc(NCCN3CCCC3)oc2c1 [Compound 4] | – | 1.95 | 1.62 | 1.70 | 0.47 | 0.50 | 3.2 | – | – | – | – | 1098 | 553 | –
CC(C)CN(C[C@@H](O)[C@H](Cc1ccccc1)NC(=O)OCc1cncs1)S(=O)(=O)c1ccc2nc(NC(=O)c3ccncc3)oc2c1 [Compound 10] | – | 3.9 | 10.83 | 1.1 | 3.9 | 1.3 | 20 | – | – | – | – | – | – | 53.7
CC(C)CN(C[C@@H](O)[C@H](Cc1ccccc1)NC(=O)OCc1cncs1)S(=O)(=O)c1ccc2nc(N(C)C(=O)C3CCCN(C)C3)oc2c1 (stereo partly drawn) [Compound 27] | <4 | 4.4 | 1.00 | 0.68 | 2.9 | 0.85 | 24 | – | – | – | – | – | – | –
CC(C)CN(C[C@@H](O)[C@H](Cc1ccccc1)NC(=O)OCc1cncs1)S(=O)(=O)c1ccc2nc(N(C)C(=O)C3CCN(C)CC3)oc2c1 [Compound 28] | <4 | 4.4 | 0.89 | 0.51 | 2.9 | 1.9 | 23 | – | – | – | – | – | – | –
CC(C)CN(C[C@@H](O)[C@H](Cc1ccccc1)NC(=O)OCc1cncs1)S(=O)(=O)c1ccc2nc(N(C)C(=O)c3ccnc(Cl)c3)oc2c1 [Compound 29] | <4 | 8.1 | 1.4 | 0.79 | 4.9 | 0.87 | 39 | – | – | – | – | – | – | –
CC(C)CN(C[C@@H](O)[C@H](Cc1ccccc1)NC(=O)OCc1cncs1)S(=O)(=O)c1ccc2nc(NC(=O)C3CCCN3C)oc2c1 (stereo partly drawn) [Compound 34] | 4.25 | 7.2 | 1.4 | 1.7 | 5.8 | 2.3 | 25 | – | – | – | – | – | – | –
